Measurements published in patent US10894885B2, “Crosslinkable composition and method for producing a coated article” (HWK KRONBICHLER GMBH, priority 2016, dated 2021).

Assay: Surface tension at a suspended drop (Drop Shape Analyser DSA 25)
Format: physicochemical
Settings: 23.5-25.0° C., ten measurements
Experimental: The surface tension was determined at a suspended drop using a “Drop Shape Analyser DSA 25” of the Krüss corporation. The measurements were performed at temperatures between 23.5 and 25.0° C. and at a relative humidity of approximately 15-30%. The sample was measured a total of ten times. The standard deviation is marked by s in Table 4 shown below.

C=Cn1cc[n+](CCC(F)(F)C(F)(F)C(F)(F)C(F)(F)C(F)(F)C(F)(F)F)c1.[Cl-] [3-(1H,1H,2H,2H-perfluorooctyl)-1-vinyl-1H-imidazoliumchloride]
OFS (surface tension) (c 0.5 w/w % in water): 21.94 mN/m | OFS (surface tension) (c 1 w/w % in water): 20.58 mN/m
